Measurements published in a melting point compilation (Tetko et al.; mined from patent text by program, amines drawn as free bases though some values may be those of a salt).

Structure (SMILES)	melting point
COc1cc(-n2cnc3cc(-c4ccc(Cl)cc4)sc3c2=O)ccc1OC[C@H](OP(=O)(O)O)C1CC1	166 °C
Nc1ccc(C=Cc2ccncn2)cc1	227 to 230 °C
CCOC1=Nc2c(C)cccc2Nc2ncccc21	135 to 136 °C
CNC1=NS(=O)(=O)N=C1NCCSCc1nc[nH]c1C	98 to 110 °C
O=C(Nc1cc[nH]n1)c1c(F)cccc1F	201 to 204 °C
CCCOc1cc(OC)c2c(c1)C(=O)c1cccc(OCCN(CC)CC)c1-2	127 to 129 °C
Nc1cn(-c2cncc(F)c2)nc1Cl	149 to 151 °C
CCn1c(-c2ccc(-n3ccnc3)cc2)cnc1[C@H](Cc1ccccn1)N(C=O)c1cc2cc(F)ccc2o1	80 to 84 °C
CC(=O)Oc1ccc2c(ccc3ccccc32)c1	141 to 142 °C
N#CC=Cc1cccc(Br)c1	62 °C
CNc1ncc(-c2ccccc2)c(-c2ccccc2)n1	136 to 138 °C
Cc1nc(-c2ccncc2)sc1-c1cccnc1	113 to 114 °C
O=c1c(-c2nc3ccccc3[nH]2)coc2ccccc12	154 °C
c1ccc(C2=N[C@@H](CCP(c3ccccc3)c3ccccc3)CO2)cc1	52.5 to 54 °C
CCOCc1nc2c(N)nc3ccccc3c2n1CCCON=C(C)C	109 to 111 °C
NC(=O)c1ncn2c(-c3cc(Cl)ccc3Cl)ccnc12	230 to 234 °C
COC(=O)c1ccccc1Oc1ccc(C(F)(F)F)cc1[N+](=O)[O-]	69 to 70 °C
CS(=O)(=O)c1ccc(-c2cnn(CC(F)(F)F)c(=O)c2NC2CCCO2)cc1 (configuration not stated)	128 to 129 °C
CCOC(=O)c1cn2c(cc(-c3cccc(Cl)c3)c3cc(C(c4ccc(Cl)cc4)c4nncn4C)ccc32)n1 (configuration not stated)	220 °C
O=C(O)C1C2CCC(O2)C1C(=O)NCCN1C(=O)NC(c2ccccc2)(c2ccccc2)C1=O (configuration not stated)	208 to 210 °C

Structure (SMILES)	melting point
Nc1cc(C(F)(F)F)cc(C(F)(F)F)n1	70.8 to 71.2 °C
CCC12CCC3C4CCC(=O)C=C4CCC3C1=CC=C2c1ccccc1 (configuration not stated)	191 °C
C[C@]1(CN2CCN(C3CCN(C(=O)OCc4ccc(OC(F)(F)F)cc4)CC3)CC2)Cn2cc([N+](=O)[O-])nc2O1	105 to 106 °C
OCCCN1c2ccccc2CCc2sccc21	73 °C
O=C1c2cccc3c4c(cc(c23)C(=O)N1O)OCCO4	344 to 347 °C
O=S(=O)(Nc1ccc2c(OCc3coc(-c4ccc(C(F)(F)F)cc4)n3)cccc2c1)C(F)(F)F	205 to 207 °C
COc1cc2c(cc1-c1cccnc1)-c1c(C3=CCOCC3)c3c(n1CC2)C(=O)N(C(C)(C)C)CCCC3	208 to 210 °C
COc1ccc(C#N)cc1C=NO	142 to 144 °C
O=C(Nc1ccccc1F)O[C@@H]1CN=C(c2ccccc2)O[C@H]1c1ccccc1 (racemic)	98 °C
CCCSc1c(C=NO)c(=O)n(C)c(=O)n1C	161 to 162 °C
O=C1c2c(oc3ccccc23)-c2ccc(O)c3cccc1c23	374 °C
CCCCCCCCCCN1C(=O)C2C3CCC(O3)C2C1=O (configuration not stated)	30 to 31 °C
O=C1C(CCO)Oc2ccccc2N1Cc1cccc([N+](=O)[O-])c1 (configuration not stated)	128 to 130 °C
COC1(c2cccc(S(=O)(=O)c3ccc4c(c3)oc(=O)n4C)c2)CCOCC1	163 to 165 °C
COc1c(CCCI)cccc1OCc1coc(/C=C/c2ccccc2)n1	103 to 104 °C
O=c1[nH]c2c(C(F)(F)F)cccc2c(=O)n1CCCN1CC=C(c2ccc(Cl)cc2)CC1	199 to 201 °C
CN1CCN(c2ccc(N/C=C3\CN=Cc4ccccc43)cc2)CC1	245 to 246 °C
COc1cc(C=Cc2ccc(Cl)nn2)cc(OC)c1OC	162 to 164 °C
Cc1cc(Oc2ccc([N+](=O)[O-])cc2)c2cc3c(cc2n1)OCO3	210 to 212 °C

The remaining lines, values ahead:

melting point	Structure (SMILES)
82 to 83 °C	COC(=O)C=C1NC(Cc2ccccc2)COC1=O (configuration not stated)
187 to 188 °C	Cc1cc(Br)cnc1CCCCNN1Cc2ccccc2S(=O)(=O)N1
254 to 256 °C	CC(C)(O)Cn1c(CO)nc2c(N)nc3cc(-c4ccc(Cl)c(Cl)c4)cnc3c21
90 °C	CC(C)(C)OC(=O)C(F)=CC1C(C(=O)O)C1(C)C (configuration not stated)
129 to 130 °C	COC(=O)C=Cc1ccc(OCc2nc(-c3ccco3)oc2C)c(OC)c1
130 to 131 °C	CCOC(=O)Cn1c(=O)sc2cc(-c3ccccc3)c(Cl)cc21
163 to 175 °C	CC(C)(C)OC(=O)CN(C(=O)CNC(=O)Nc1cccc(-c2nnn[nH]2)c1)c1ccccc1C(=O)c1ccccc1
112 to 115 °C	CC(C)(C)N1C(=O)[C@@H]2C[C@H]1CN2C(=O)[C@@H](O)[C@H](Cc1ccccc1)NC(=O)[C@H](CC(N)=O)NC(=O)OCc1ccccc1
102 to 105 °C	COC(=O)C(=O)c1cc2c3c(c1)CCN3CCC2
92 to 102 °C	COC(=O)[C@](C)(Cc1ccc(N(C(=O)OC(C)(C)C)C(=O)C2CCNCC2)cc1)n1nnnc1C1CCCN1S(=O)(=O)c1ccc(C)cc1 (some centres not stated)
99 to 102 °C	CC(C)C[C@H](CC(=O)NC1CCCCC1)C(=O)OCc1ccccc1
79 to 81 °C	CCCC(CO)N1CC(COc2cccc(Cl)c2)OC1=O (configuration not stated)
220 °C	O=C(NCc1ccccn1)Nc1nc(C(=O)O)cs1
80 to 82 °C	CCC#CCOc1cc2c(cc1/C=C/c1ccc(C(=O)OCC)cc1)C(C)(C)CCC2(C)C
280 to 281 °C	COc1ccc(Cn2c(=S)[nH]c(=O)c3[nH]c(C(C)C)nc32)cc1OCc1ccccc1
52 to 54 °C	CCNC(=O)n1nc(Oc2ncc(C(F)(F)F)cc2Cl)cc1C(F)(F)F
201 °C	CCOc1ccc(S(=O)(=O)N2CCN(C)CC2)cc1C(=O)O

melting point	Structure (SMILES)
244 to 246 °C	COc1ccc(CC(C)(N)C(=O)O)cc1OC (configuration not stated)
127 to 131 °C	Cc1cc(C(C)(C)C)cc(CN)c1S
177 °C	CC(C)(C)c1ccc(/C=C/C(=O)Nc2ccc3ocnc3c2)cc1
266 to 267 °C	O=C(O)c1[nH]c2cc(Cl)cc(Cl)c2c1N(Cc1ccccc1)C(=O)c1ccccc1
> 250 °C	CN1C(=O)CCC(C)(C)c2ccc(NC(=O)c3ccc(C(=O)O)cc3)cc21
172 to 174 °C	CC(=O)NC(C(=O)NCc1cccnc1)c1ccco1 (configuration not stated)
214 to 216 °C	Cc1c(C(=O)O)oc2c(C(=O)c3ccc(Cl)cc3)cc(C(C)(C)C)c(O)c12
62 to 64 °C	Cc1oc(-c2ccccc2)nc1COc1cccc(CN(O)C(=O)N(C)O)c1
60 °C	COc1cccc(N(CC(=O)OC(C)(C)C)C(=O)CNC(=O)Nc2cccc(C)c2)c1
120 to 124 °C	CS(=O)(=O)c1cc(CBr)ccc1Br
72.5 to 73.5 °C	C[C@H](CC(F)(F)F)C(=O)N1C(=O)O[C@@H](c2ccccc2)[C@H]1C
188 °C	COc1ccc(-c2c(C(N)=O)c3n(c2Cl)CCN(C(=O)OC(C)(C)C)C3)cc1
131 to 132 °C	CC12CC3CC(C)(C1)CC(C(=O)NCCc1cccs1)(C3)C2
150 to 152 °C	Cc1c(NC(=O)CC(C)(C)C)c(C)c2c(c1-c1ccncc1)OCC2c1ccc(C(C)C)cc1 (configuration not stated)
94.5 to 95.5 °C	O=C(O)CC(O)c1cccc(Cl)c1 (configuration not stated)
193 to 195 °C	Cc1cc(NC(=O)C(CS)CC(C)C)cc(C(=O)O)c1 (configuration not stated)
